Tests used:
[1] = Accelerated stability test (HPLC impurities, content, crystal form); format: physicochemical; conditions: for Crystal form / Content / Individual impurity / Total impurity: 4θ±2° C. and RH 75±5%; for Content / Individual impurity / Total impurity: wt %
Method: The powder of the crystal form I compound according to above Example 8 was doubly packed with an LDPE bag, then packed with a paperboard tube, and left alone at 4θ±2° C. and RH 75±5% for zero and six months, after which impurities were measured by using a high speed liquid chromatography under the following conditions.
<HPLC Conditions> • Detector: Ultraviolet absorption spectrophotometer (wavelength: 307 nm) • Column: Kromasil 100-5C18 (4.6×250 mm, […]) or a column similar thereto • Column temperature: 25° C. • Injection amount: 10 μl • Mobile phase: Mobile phase A—20 mmol/L of ammonium acetate buffer solution (pH 4.5, acetic acid), Mobile phase B—acetonitrile:methanol=8:2

[2] = Hygroscopicity (Dynamic Vapor Sorption, DVS) measurement; format: physicochemical; conditions: 25° C.; for hygroscopicity (overall assessment): DVS 0 to 95 % RH
Method: The hygroscopicity was tested by using the crystal form I of above Example 8.
i) Model name: DVS Intrinsic (Surface Measurement Systems LTD. UK)
ii) Humidity: Initial 0% maximum 95%
iii) Experiment time: 7 hours
After placing a certain amount (10 mg) of the crystal form I compound prepared in Example 8 on a sample pan in a sample chamber, nitrogen was flowed through a tube connected into the sample chamber for the first one hour so as to remove moisture in the chamber and moisture of the sample. Humidity in the chamber was controlled by controlling water vapor, and target relative humidity was increased step by step from initial 0% to 10% every 20 minutes, so as to measure a moisture content of crystal form I for 205 min. A mass of the sample was measured […] (from 0% RH to 95% RH) to collect data at 10% RH intervals, and a change in weight of the sample according to the increase and decrease of humidity was graphed.

Long-term stability test = format: physicochemical; conditions: for Content / Individual impurity / Total impurity / Crystal form: 25±2° C. and RH 6θ±5%; for Content / Individual impurity / Total impurity: capsule in PTP packing, wt %
Method: The powder of the crystal form I compound according to above Example 8 was doubly packed with an LDPE bag, then packed with a paperboard tube, and filled into a capsule, after which the capsule was subjected to PTP packing to carry out a long-term stability test (25±2° C. and RH 6θ±5%).

[3] = Pharmacokinetic (PK) test, oral capsule in beagle dog; format: in vivo; conditions: 100 mg oral, powder in capsule
Method: A pharmacokinetic (PK) experiment was performed on the crystal form I compound according to Example 8.
The powder of the crystal form I compound of Example 8 was filled into a capsule in an amount of 100 mg, and the capsule was orally administered to a beagle dog at 100 mg once a day, and then the biokinetics of the drug was confirmed.
Specifically, 100 mg of the crystal form I compound was orally administered to the beagle dog, and blood was collected at a predetermined time, so as to measure a concentration of (S)-4-((1-(4,8-dichloro-1-oxo-2-phenyl-1,2-dihydroisoquinoline-3-yl)ethyl)amino)pyrido[2,3-d]pyrimidine-5(8H)-one. With respect to pharmacokinetic parameters, the BA Calc 2007 program was used to calculate an area under the plasma concentration-time curve from dosing time to final plasma concentration quantification time t (AUCt), area under the plasma concentration-time curve from dosing time to infinite time (AUCi), peak plasma concentration (Cmax), time for maximum plasma concentration (Tmax), and terminal elimination half-life (t1/2). As a result, a significance between substances was confirmed by Student t-test (SPSS) at a 95% confidence interval, and the results thereof are shown in table 2 below.

[4] = Stress stability test (temperature / humidity); format: physicochemical; conditions: for Content / Individual impurity / Total impurity: wt %
Method: The crystal form I prepared in above Example 8 was left alone under the stress conditions (temperature: 60° C., humidity: 40° C., RH75%) for 0, 7 and 14 days, after which impurities were measured by using high speed liquid chromatography.

[5] = stress: humidity (40° C., RH75%), 7 days
[6] = stress: humidity (40° C., RH75%), 14 days
[7] = stress: humidity (40° C., RH75%), zero day (initial)
[8] = stress: temperature (60° C.), 7 days
[9] = stress: temperature (60° C.), 14 days
[10] = stress: temperature (60° C.), zero day (initial)

- Crystal form ([1]; six months): Form I
- Content ([1]; six months): 99.7%
- Individual impurity ([1]; six months): 0.02%
- Total impurity ([1]; six months): 0.16%
- Crystal form ([1]; zero month (initial)): Form I
- Content ([1]; zero month (initial)): 100.0%
- Individual impurity ([1]; zero month (initial)): 0.02%
- Total impurity ([1]; zero month (initial)): 0.14%
- hygroscopicity (overall assessment) [2]: non-hygroscopicity
- hygroscopicity (overall assessment) ([2]; listed as crystal form I): remarkably excellent non-hygroscopicity
- water (moisture) content by DVS ([2]; relative humidity 0.0 %): 0.01%
- water (moisture) content by DVS ([2]; relative humidity 10.0 %): 0.06%
- water (moisture) content by DVS ([2]; relative humidity 20.0 %): 0.11%
- water (moisture) content by DVS ([2]; relative humidity 30.0 %): 0.16%
- water (moisture) content by DVS ([2]; relative humidity 40.0 %): 0.2%
- water (moisture) content by DVS ([2]; relative humidity 50.0 %): 0.24%
- water (moisture) content by DVS ([2]; relative humidity 60.0 %): 0.28%
- water (moisture) content by DVS ([2]; relative humidity 70.0 %): 0.33%
- water (moisture) content by DVS ([2]; relative humidity 80.0 %): 0.38%
- water (moisture) content by DVS ([2]; relative humidity 90.0 %): 0.46%
- water (moisture) content by DVS ([2]; relative humidity 95.0 %): 0.54%
- Content (Long-term stability test; six months): 99.7%
- Individual impurity (Long-term stability test; six months): 0.02%
- Total impurity (Long-term stability test; six months): 0.15%
- Content (Long-term stability test; zero month (initial)): 100.0%
- Individual impurity (Long-term stability test; zero month (initial)): 0.02%
- Total impurity (Long-term stability test; zero month (initial)): 0.14%
- Crystal form (Long-term stability test; six months): Form I
- Crystal form (Long-term stability test; zero month (initial)): Form I
- bioavailability (in words) [3]: excellent bioavailability
- concentration in blood (in words) [3]: high concentration in blood
- AUC(0-inf) ([3]; plasma): 559 ng·h/mL
- AUC(0-t) ([3]; plasma): 540 ng·h/mL
- Cmax ([3]; plasma): 215 ng/mL
- Tmax ([3]; plasma): 1.25 h
- half-life ([3]; plasma): 1.56 h
- Content [4, 5]: 99.6%
- Individual impurity [4, 5]: 0.58%
- Total impurity [4, 5]: 0.64%
- Content [4, 6]: 100.8%
- Individual impurity [4, 6]: 0.58%
- Total impurity [4, 6]: 0.65%
- Content [4, 7]: 99.1%
- Individual impurity [4, 7]: 0.58%
- Total impurity [4, 7]: 0.66%
- Content [4, 8]: 100.0%
- Individual impurity [4, 8]: 0.58%
- Total impurity [4, 8]: 0.64%
- Content [4, 9]: 99.7%
- Individual impurity [4, 9]: 0.58%
- Total impurity [4, 9]: 0.65%
- Content [4, 10]: 99.1%
- Individual impurity [4, 10]: 0.58%
- Total impurity [4, 10]: 0.66%
Compound: C[C@H](Nc1ncnc2[nH]ccc(=O)c12)c1c(Cl)c2cccc(Cl)c2c(=O)n1-c1ccccc1 [Crystal form I, (S)-4-((1-(4,8-dichloro-1-oxo-2-phenyl-1,2-dihydroisoquinoline-3-yl)ethyl)amino)pyrido[2,3-d]pyrimidin-5(8H)-one]
- change of impurities and content (in words) ([1]; accelerated conditions, six months): neither significant change nor change with time
- change of impurities and content (in words) (Long-term stability test; long-term conditions, six months): neither significant change nor change with time
- change of impurities and content (in words) ([4]; stress conditions, 0, 7 and 14 days): neither significant change nor change with time
